Test results from patent publication US6506766B1 (Abbott Laboratories, priority 1998, dated 2003).
Like-named read-outs stand apart in the source and are kept apart here.

How the values were obtained:
[1] = biological target: T1, human progesterone receptor-A [PRA] isoform (Homo sapiens, UniProt P06401); assay: Radioligand binding with human progesterone receptor cytosol ([3H]-progesterone competition); settings: read-out: Ki (nM) PR
T1 construct: host or cells: insect SF21 cells (baculovirus)
T1 sequence (P06401 1-769 isoform P06401-2): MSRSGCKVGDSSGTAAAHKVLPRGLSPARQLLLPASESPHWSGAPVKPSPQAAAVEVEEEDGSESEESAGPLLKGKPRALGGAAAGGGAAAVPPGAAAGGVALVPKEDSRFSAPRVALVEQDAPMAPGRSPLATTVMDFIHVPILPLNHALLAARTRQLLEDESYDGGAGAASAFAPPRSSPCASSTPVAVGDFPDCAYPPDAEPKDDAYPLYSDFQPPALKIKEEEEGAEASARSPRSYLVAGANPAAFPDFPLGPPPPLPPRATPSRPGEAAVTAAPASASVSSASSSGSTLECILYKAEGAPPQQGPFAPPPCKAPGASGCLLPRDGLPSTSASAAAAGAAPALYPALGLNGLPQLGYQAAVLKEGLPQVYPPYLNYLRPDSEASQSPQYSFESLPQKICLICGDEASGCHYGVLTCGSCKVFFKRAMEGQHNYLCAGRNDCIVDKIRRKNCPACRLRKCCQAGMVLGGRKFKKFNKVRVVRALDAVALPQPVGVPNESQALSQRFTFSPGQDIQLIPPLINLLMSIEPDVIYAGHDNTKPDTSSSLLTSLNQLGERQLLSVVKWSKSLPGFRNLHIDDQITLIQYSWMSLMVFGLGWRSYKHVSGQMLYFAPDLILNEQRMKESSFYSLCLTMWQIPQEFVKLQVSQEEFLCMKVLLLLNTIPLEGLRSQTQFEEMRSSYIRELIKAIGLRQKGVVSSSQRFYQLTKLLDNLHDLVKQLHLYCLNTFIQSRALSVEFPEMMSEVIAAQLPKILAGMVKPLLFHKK
Procedure: Both receptor cDNAs were cloned into baculovirus expression vectors and expressed in insect SF21 cells.
Stock solutions (32 mM) of compounds were prepared in dimethylsulfoxide (DMSO), and 50× solutions of test compounds were prepared from the 32 mM solution with a 50:50 mixture of DMSO/ethanol. The 50× solution was then diluted with binding buffer that contained 10 mM Tri-HCl, 1.5 mM EDTA, 10% glycerol, 1 mM DTT, 20 mM sodium molybdate, pH 7.5 @4° C. 1% DMSO/ethanol was present in the binding assay.
For PR binding assays, [^3H]Prog (˜36,000 dpm (˜0.8 nM)), PRA cytosol (˜40 μg protein), test compounds and binding buffer were mixed in a total volume of 200 μL and incubated at 4° C at overnight in a plate shaker. Specific binding was defined as the difference between binding of [^3H]Prog in the absence and in the presence of 3 μM unlabelled Prog.
After an overnight incubation, 50 μL of hydroxyapatite (25% weight/volume) slurry were added to each well and plates were incubated for 10 min at 0° C. in a plate shaker. Plates were suctioned with a Millipore vacuum manifold and each well was rinsed with 300 μL of ice-cold binding buffer. A 250 μL aliquot of Packard Microscint-20 was added to each well and the wells were shaken at room temperature for 20 minutes. The amount of radioactivity was determined with a Packard TopCount plate reader.
The Ki of test compounds was determined using the Cheng-Prusoff equation Ki=IC50/(1+[L*]/[KL]) where L* is the concentration of radioligand and KL is the dissociation constant of the radioligand determined from saturation analysis.

[2] = biological target: T2, human glucocorticoid receptor-α [GRX] isoform (Homo sapiens, UniProt P04150); assay: Radioligand binding with human glucocorticoid receptor cytosol ([3H]-dexamethasone competition)
T2 construct: host or cells: insect SF21 cells (baculovirus)
T2 sequence (P04150 1-777): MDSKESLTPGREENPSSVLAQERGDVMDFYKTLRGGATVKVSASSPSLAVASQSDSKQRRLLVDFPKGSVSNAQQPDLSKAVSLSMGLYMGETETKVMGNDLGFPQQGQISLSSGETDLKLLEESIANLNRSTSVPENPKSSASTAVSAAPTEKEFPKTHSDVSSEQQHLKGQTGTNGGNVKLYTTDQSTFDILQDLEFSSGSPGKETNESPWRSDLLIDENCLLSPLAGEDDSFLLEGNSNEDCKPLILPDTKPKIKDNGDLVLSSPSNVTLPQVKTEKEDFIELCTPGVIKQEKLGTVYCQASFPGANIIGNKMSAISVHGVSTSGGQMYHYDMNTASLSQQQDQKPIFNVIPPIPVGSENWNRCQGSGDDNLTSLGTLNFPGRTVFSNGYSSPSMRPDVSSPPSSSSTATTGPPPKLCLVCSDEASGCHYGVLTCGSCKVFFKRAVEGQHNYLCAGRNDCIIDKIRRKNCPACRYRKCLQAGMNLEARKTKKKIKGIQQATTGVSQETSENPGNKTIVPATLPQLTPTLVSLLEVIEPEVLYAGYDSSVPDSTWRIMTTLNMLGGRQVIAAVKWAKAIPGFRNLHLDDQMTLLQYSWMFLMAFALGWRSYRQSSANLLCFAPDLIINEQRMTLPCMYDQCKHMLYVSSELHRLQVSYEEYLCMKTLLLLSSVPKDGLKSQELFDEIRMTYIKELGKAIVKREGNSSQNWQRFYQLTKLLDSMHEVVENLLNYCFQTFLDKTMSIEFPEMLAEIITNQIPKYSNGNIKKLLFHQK

[3] = PRA cytosol expressed in insect SF21 cells, [3H]Prog ~0.8 nM, 4° C. overnight, Ki by Cheng-Prusoff, KL ~4.5 nM
[4] = GRX cytosol expressed in insect SF21 cells, [3H]-Dex ~0.9 nM, 4° C. overnight, Ki by Cheng-Prusoff, KL ~[…], read-out: Ki (nM) GR

| Compound | Ki [1, 3] [nM] | Ki [2, 4] [nM] | Ki ([2]; Ki (nM) GR) [nM] | Ki [1] [nM] | Ki ([2]; read-out: Ki (nM) GR) [nM] |
| --- | --- | --- | --- | --- | --- |
| COc1cccc2c1-c1ccc3c(c1C(CC=O)O2)C(C)=CC(C)(C)N3 (stereo not shown) [Example 186, 2-(2,5-Dihydro-10-methoxy-2,2,4-trimethyl-1H-[1]benzopyrano[3,4-f]quinolin-5-yl)acetaldehyde] | ≥ 10000 | 90 |  |  |  |
| COc1cccc2c1-c1ccc3c(c1C(CC=C1CCCC1)O2)C(C)=CC(C)(C)N3 (stereo not shown) [Example 188, 2,5-Dihydro-10-methoxy-5-(2-cyclopentylidenylethyl)-2,2,4-trimethyl-1H-[1]benzopyrano[3,4-f]quinoline] | 5300 |  | 4.9 |  |  |
| COc1cccc2c1-c1ccc3c(c1C(CC=C(C)C)O2)C(C)=CC(C)(C)N3 (stereo not shown) [Example 190, 2,5-Dihydro-10-methoxy-5-(3-methyl-2-butenyl)-2,2,4-trimethyl-1H-[1]benzopyrano[3,4f-]quinoline] | 1590 | 6.25 |  |  |  |
| C/C=C/CC1Oc2cccc(OC)c2-c2ccc3c(c21)C(C)=CC(C)(C)N3 (stereo not drawn) [Example 191, trans 2,5-Dihydro-10-methoxy-5-(2-butenyl)-2,2,4-trimethyl-1H-[1]benzopyrano[3,4-f]quinoline] | 1190 | 2.9 |  |  |  |
| CC/C=C/CC1Oc2cccc(OC)c2-c2ccc3c(c21)C(C)=CC(C)(C)N3 (stereo not drawn) [Example 192, trans 2,5-Dihydro-10-methoxy-5-(2-penten-1-yl)-2,2,4-trimethyl-1H-[1]benzopyrano[3,4-f]quinoline] | ≥ 10000 | 3.1 |  |  |  |
| COc1cccc2c1-c1ccc3c(c1C(CC=C(F)F)O2)C(C)=CC(C)(C)N3 (stereo not shown) [Example 193, 2,5-Dihydro-10-methoxy-5-(1,1-difluoro-1-propen-3-yl)-2,2,4-trimethyl-1H-[1]benzopyrano[3,4-f]quinoline] | 2180 |  | 2 |  |  |
| COC(=O)/C=C/CC1Oc2cccc(OC)c2-c2ccc3c(c21)C(C)=CC(C)(C)N3 (stereo not shown) [Example 194] | ≥ 10000 | 7.7 |  |  |  |
| COc1cccc2c1-c1ccc3c(c1C(C/C=C/CO)O2)C(C)=CC(C)(C)N3 (stereo not shown) [Example 195, (E) 2,5-Dihydro-10-methoxy-5-(4-hydroxy-2-buten-1-yl)-2,2,4-trimethyl-1H-[1]benzopyrano[3,4-f]quinoline] | ≥ 10000 | 25 |  |  |  |
| COc1cccc2c1-c1ccc3c(c1C(C/C=C/COC(=O)N(C)C)O2)C(C)=CC(C)(C)N3 (stereo not shown) [Example 196, (E) 2,5-Dihydro-10-methoxy-5-(4-(N,N-dimethylaminocarbonyloxy)-2-buten-1-yl)-2,2,4-trimethyl-1H-[1]benzopyrano[3,4-f]quinoline] | ≥ 10000 | 1.1 |  |  |  |
| CNC(=O)OC/C=C/CC1Oc2cccc(OC)c2-c2ccc3c(c21)C(C)=CC(C)(C)N3 (stereo not shown) [Example 197, (E) 2,5-Dihydro-10-methoxy-5-(4-(N-methylaminocarbonyloxy)-2-buten-1-yl)-2,2,4-trimethyl-1H-[1]benzopyrano[3,4-f]quinoline] | ≥ 10000 | 28 |  |  |  |
| C/C=C/CC1Oc2cccc(OC)c2-c2ccc3c(c21)C(C)=CC(C)(C)N3 (stereo not shown) [Example 198, (E) 2,5-Dihydro-10-methoxy-5-(2-butenyl)-2,2,4-trimethyl-1H-[1]benzopyrano[3,4-f]quinoline] | 2130 | 0.65 |  |  |  |
| COc1cccc2c1-c1ccc3c(c1C(CCOC(=O)NCc1ccccc1)O2)C(C)=CC(C)(C)N3 (stereo not shown) [Example 200, 2,5-Dihydro-10-methoxy-5-(2-(N-benzylcarbonyloxy)ethyl)-2,2,4-trimethyl-1H-[1]benzopyrano[3,4-f]quinoline] | ≥ 10000 | 45 |  |  |  |
| COc1cccc2c1-c1ccc3c(c1C(CCOC(=O)N1CCOCC1)O2)C(C)=CC(C)(C)N3 (stereo not shown) [Example 201, 2,5-Dihydro-10-methoxy-5-(2-(N-morpholinocarbonyloxy)ethyl)-2,2,4-trimethyl-1H-[1]benzopyrano[3,4-f]quinoline] | ≥ 10000 | 114 |  |  |  |
| COCCNC(=O)OCCC1Oc2cccc(OC)c2-c2ccc3c(c21)C(C)=CC(C)(C)N3 (stereo not shown) [Example 202, 2,5-Dihydro-10-methoxy-5-(2-(N-(2-methoxyethyl)aminocarbonyloxy)ethyl)-2,2,4-trimethyl-1H-[1]benzopyrano[3,4-f]quinoline] | ≥ 10000 | 134 |  |  |  |
| CNC(=O)OCCC1Oc2cccc(OC)c2-c2ccc3c(c21)C(C)=CC(C)(C)N3 (stereo not shown) [Example 203, 2,5-Dihydro-10-methoxy-5-(2-(N-methyaminocarbonyloxyoxy)ethyl)-2,2,4-trimethyl-1H-[1]benzopyrano[3,4-f]quinoline] | ≥ 10000 | 85 |  |  |  |
| COc1cccc2c1-c1ccc3c(c1C(CCOC(=O)N(C)C)O2)C(C)=CC(C)(C)N3 (stereo not shown) [Example 204, 2,5-Dihydro-10-methoxy-5-(2-(N,N-dimethylaminocarbonyloxy)ethyl)-2,2,4-trimethyl-1H-[1]benzopyrano[3,4-f]quinoline] | ≥ 10000 | 74 |  |  |  |
| COCOCCC1Oc2cccc(OC)c2-c2ccc3c(c21)C(C)=CC(C)(C)N3 (stereo not shown) [Example 205, 2,5-Dihydro-10-methoxy-5-(2-methoxymethoxyethyl)-2,2,4-trimethyl-1H-[1]benzopyrano[3,4-f]quinoline] | ≥ 10000 | 11.4 |  |  |  |
| CCOC(=O)NCC1Oc2cccc(OC)c2-c2ccc3c(c21)C(C)=CC(C)(C)N3 (stereo not shown) [Example 207] | ≥ 10000 | 22 |  |  |  |
| C=C=C(C)C1Oc2cccc(OC)c2-c2ccc3c(c21)C(C)=CC(C)(C)N3 (stereo not shown) [Example 210, 2,5-Dihydro-10-methoxy-5-(-methylpropa-1,2-dienyl)-2,2,4-trimethyl-1H-[1]benzopyrano[3,4-f]quinoline] |  |  |  | 710 | 21 |
| COc1cccc2c1-c1ccc3c(c1C(c1cc(F)c(F)c(F)c1)O2)C(C)=CC(C)(C)N3 (stereo not shown) [Example 211] | ≥ 10000 | 5.3 |  |  |  |
| COc1cccc2c1-c1ccc3c(c1C(c1ccccn1)O2)C(C)=CC(C)(C)N3 (stereo not shown) [Example 213, 2,5-Dihydro-10-methoxy-5-(2-pyridyl)-2,2,4-trimethyl-1H-[1]benzopyrano[3,4-f]quinoline] | ≥ 10000 | 67 |  |  |  |
| COc1cccc2c1-c1ccc3c(c1C(c1cccnc1)O2)C(C)=CC(C)(C)N3 (stereo not shown) [Example 214, 2,5-Dihydro-10-methoxy-5-(3-pyridyl)-2,2,4-trimethyl-1H-[1]benzopyrano[3,4-f]quinoline] | ≥ 10000 | 5.7 |  |  |  |
| COc1cccc2c1-c1ccc3c(c1C(c1ccncc1)O2)C(C)=CC(C)(C)N3 (stereo not shown) [Example 215, 2,5-Dihydro-10-methoxy-5-(4-pyridyl)-2,2,4-trimethyl-1H-[1]benzopyrano[3,4-f]quinoline] | ≥ 10000 | 20 |  |  |  |
| C=CCC1Oc2ccc(O)c(Cl)c2-c2ccc3c(c21)C(C)=CC(C)(C)N3 (stereo not shown) [Example 216, 10-Chloro-9-hydroxy-5-(3-propenyl)-2,2,4-trimethyl-1H-2,5-dihydro-[1]benzopyrano[3,4-f]quinoline] | 7.6 |  |  |  | 0.58 |
| CC1=CC(C)(C)Nc2ccc3c(c21)C(c1ccccc1)Oc1ccc(O)c(Cl)c1-3 (stereo not shown) [Example 217, 10-Chloro-9-hydroxy-5-phenyl-2,2,4-trimethyl-1H-2,5-dihydro-[1]benzopyrano[3,4-f]quinoline] | 65.1 | 1 |  |  |  |
| CC1=CC(C)(C)Nc2ccc3c(c21)C(c1cccc(C(F)(F)F)c1)Oc1ccc(O)c(Cl)c1-3 (stereo not shown) [Example 218, 10-Chloro-9-hydroxy-5-(3-trifluoromethylphenyl)-2,2,4-trimethyl-1H-2,5-dihydro-[1]benzopyrano[3,4-f]quinoline] | 227 | 1.6 |  |  |  |
